Assay results published in a compilation of properties of binary mixtures (doi:10.1016/j.molliq.2018.05.059).

Assay: xn = mol fraction of the nth substance listed
Conditions: 298 K, 101 kPa

In the case of `CC(=O)[O-].CCC[N+]1(C)CCN(C)CC1` + CC#N, the electrical conductivity (x2 = 0.806) is reported as 1.82 S/m, the electrical conductivity (x2 = 0.819) is reported as 1.89 S/m and the electrical conductivity (x2 = 0.832) is reported as 1.95 S/m. It also gave an electrical conductivity (x2 = 0.843) of 1.98 S/m, an electrical conductivity (x2 = 0.852) of 1.98 S/m and an electrical conductivity (x2 = 0.859) of 2.04 S/m. It also gave an electrical conductivity (x2 = 0.874) of 2.01 S/m, an electrical conductivity (x2 = 0.884) of 2.04 S/m and an electrical conductivity (x2 = 0.895) of 2.06 S/m. The electrical conductivity (x2 = 0.902) was 2.06 S/m, the electrical conductivity (x2 = 0.919) was 2.04 S/m and the electrical conductivity (x2 = 0.931) was 2.01 S/m. It also gave an electrical conductivity (x2 = 0.937) of 1.94 S/m and an electrical conductivity (x2 = 0.95) of 1.85 S/m.
`CC(O)C(=O)[O-].CCC[N+]1(C)CCN(C)CC1` + CC#N gave an electrical conductivity (x2 = 0.808) of 1.52 S/m, an electrical conductivity (x2 = 0.835) of 1.72 S/m and an electrical conductivity (x2 = 0.856) of 1.83 S/m. It also gave an electrical conductivity (x2 = 0.872) of 1.91 S/m, an electrical conductivity (x2 = 0.89) of 1.99 S/m and an electrical conductivity (x2 = 0.898) of 1.99 S/m. For the same molecule, the electrical conductivity (x2 = 0.907) was 2.04 S/m, the electrical conductivity (x2 = 0.918) was 2.05 S/m and the electrical conductivity (x2 = 0.927) was 2.05 S/m. For the same molecule, the electrical conductivity (x2 = 0.939) was 2.01 S/m and the electrical conductivity (x2 = 0.945) was 1.96 S/m.
